# Assay results taken from patent US5597899A, “Tumor necrosis factor muteins” (Hoffmann-La Roche Inc., priority 1993, dated 1997).
# Changes are numbered by the printed parent chain. Numbers in names are those of the source.
# B1: L29S-R32W-S86T: human TNFα mutein L29S-R32W-S86T (protein)
# chain: VRSSSRTPSDKPVAHVVANPQAEGQLQWSNRWANALLANGVELRDNQLVVPSEGLYLIYSQVLFKGQGCPSTHVLLTHTISRIAVTYQTKVNLLSAIKSPCQRETPEGAEAKPWYEPIYLGGVFQLEKGDRLSAEINRPDYLDFAESGQVYFGIIAL
# B2: R31N-R32T-N34S: human TNFα mutein R31N-R32T-N34S (protein)
# chain: B1 chain with S29L, R31N, W32T, N34S, T86S
# B3: D143V-F144L-A145S: human TNFα mutein D143V-F144L-A145S (protein)
# chain: B1 chain with S29L, W32R, T86S, D143V, F144L, A145S
# B4: R31N-R32T-S86T: human TNFα mutein R31N-R32T-S86T (protein)
# chain: B1 chain with S29L, R31N, W32T
# Experiments:
# human TNFR-p55 [1] = test: Solid phase radioligand competition binding assay, E. coli lysates, TNFR-p55; conditions: for Dilution of E. coli Lysate for 50% Inhibition of 125I-TNFα Binding (ID50) TNFR-p55: 10-fold serial dilutions 10^-2 to 10^-7, < = inhibition but below 50% at 1:100, << = no measurable inhibition at 1:100; for ID50 TNFR-p55 / ID50 TNFR-p75: ratio = 1 no receptor selectivity, > 1 TNFR-p55 selectivity, < 1 TNFR-p75 selectivity
# Experimental: (§1) After 20 min incubation at room temperature 50 μl of 1M MgCl2, 20 μl of 5 mg/ml DNaseI, 50 μl of 5M NaCl and 50 μl of 10% NP-40 were added and the mixture was further incubated at room temperature for 15 min. 0.5 ml of the lysate clarified by centrifugation at 13'000 rpm for 5 min was subjected to ammonium sulfate precipitation (25%-70% cut). The 70% ammonium sulfat pellet was dissolved in 0.2 ml PBS and analyzed by sodium dodecyl sulfate polyacrylamide gel electrophoresis (SDS-PAGE) to confirm presence and approximate amount of the recombinant proteins.
# (§2) TNFα was labelled by the Iodogen method (Pierce Chemical Company) to a specific activity of about 10-30 μCi/μg. The volume was 100 μl/well and each lysate dilution was assayed in duplicate or triplicate. After three hours at room temperature the wells were thoroughly washed with PBS and counted in a γ-counter. The results are given in Table 2 for lysates comprising the muteins indicated therein.
# human TNFR-p55 [2] = test: Competitive binding of purified muteins to recombinant human TNFR-p55; conditions: for Decrease in Binding Affinity with Respect to Wildtype TNFR-p55: IC50 of mutein divided by IC50 of wildtype TNFα; for Mutein Concentration for 50% Inhibition of 125I-TNFα Binding (IC50) TNFR-p55: purified protein, 10 ng/ml 125I-TNFα, > = competition but below 50% at 100 μg/ml, >> = no measurable competition at 100 μg/ml
# Experimental: (§3) The cells were disrupted in a French press at a pressure of 20'000 psi or by sonication in a Branson Sonifier (Model 450, 2×2minat maximal output, on ice). […] Proteins were eluted with a linear NaCl gradient (0 to 400 mM in 20 mM Tris pH 9.0) at a flow rate of 1 ml/min. 5 ml fractions were collected and analyzed for the presence of TNFα muteins by SDS-PAGE. Positive fractions were pooled, dialyzed against 20 mM 2-morpholino-ethanesulfonic acid (MES) pH 6.0 and applied to a MonoS column (HR 5/5, LKB-Pharmacia) equilibrated in 20 mM MES pH 6.0. Proteins were eluted with a linear NaCl gradient (0 to 400 mM in 20 mM MES pH 6.0) at a flow rate of 0.5 ml/min. […] After dialysis against PBS the protein concentration was determined by the BCA Protein Assay (Pierce Chemical Company) using wild-type human TNFα as a standard or by absorbance measurements at 280 nm.
# as §2, with “concentration” for “lysate dilution”, “γ-counter.” for “γ-counter. The results are given in Table 2 for lysates comprising the muteins indicated therein.”
# human TNFR-p75 [3] = test: Solid phase radioligand competition binding assay, E. coli lysates, TNFR-p75; conditions: 10-fold serial dilutions 10^-2 to 10^-7, < = inhibition but below 50% at 1:100, << = no measurable inhibition at 1:100
# Experimental: as §1, with “10 ml suspensions of E. coli cells transformed and induced as described in Examples I and II were centrifuged at 4'000 rpm for 10 min and resuspended in 0.9 ml of lysis buffer (10 mM Tris-HCl pH 8.0, 5 mM EDTA, 2 mM PMSF, 10 mM benzamidine, 200 units/ml aprotinine and 0.1 mg/ml lysozyme). After” for “After”
# 96 well microtiter plates were coated with recombinant human […] TNFR-p75-hγ3 and TNFR-p55-hγ3 fusion proteins (extracellular portion of the receptor fused to the Fc part of human IgG3) at a concentration of 0.3 μg/ml and 0.1 μg/ml, respectively, in phosphate buffered saline (PBS, 100 μl/well, overnight at 4° C.) [Loetscher, H. et al. J. Biol. Chem. 266, 18324-18329 (1991); Lesslauer, W. et al. Eur. J. Immunol. 21, 2883-2886 (1991)]. After blocking with blocking buffer (50 mM Tris pH 7.4, 140 mM NaCl, 5 mM EDTA, 0.02% NAN3, 1% defatted milk powder) the microtiter plate was washed with PBS and incubated in blocking buffer containing 0.1% defatted milk powder with 10 ng/ml human wild-type ^125 I-TNFα and various dilutions of E. coli lysates ranging from 10^-2 to 10^-7 (10-fold serial dilutions). TNFα was labelled by the Iodogen method (Pierce Chemical Company) to a specific activity of about 10-30 μCi/μg. The volume was 100 μl/well and each lysate dilution was assayed in duplicate or triplicate. After three hours at room temperature the wells were thoroughly washed with PBS and counted in a γ-counter. The results are given in Table 2 for lysates comprising the muteins indicated therein.
# human TNFR-p75 [4] = test: Competitive binding of purified muteins to recombinant human TNFR-p75; conditions: for Decrease in Binding Affinity with Respect to Wildtype TNFR-p75: IC50 of mutein divided by IC50 of wildtype TNFα; for Mutein Concentration for 50% Inhibition of 125I-TNFα Binding (IC50) TNFR-p75: purified protein, 10 ng/ml 125I-TNFα
# Experimental: as §3
# as §2, with “concentration” for “lysate dilution”, “γ-counter.” for “γ-counter. The results are given in Table 2 for lysates comprising the muteins indicated therein.”
Molecule,Dilution of E. coli Lysate for 50% Inhibition of 125I-TNFα Binding (ID50) TNFR-p55 (human TNFR-p55 [1]),ID50 TNFR-p55 / ID50 TNFR-p75 (human TNFR-p55 [1]),Decrease in Binding Affinity with Respect to Wildtype TNFR-p55 (human TNFR-p55 [2]),Mutein Concentration for 50% Inhibition of 125I-TNFα Binding (IC50) TNFR-p55 (human TNFR-p55 [2]),Dilution of E. coli Lysate for 50% Inhibition of 125I-TNFα Binding (ID50) TNFR-p75 (human TNFR-p75 [3]),Decrease in Binding Affinity with Respect to Wildtype TNFR-p75 (human TNFR-p75 [4]),Mutein Concentration for 50% Inhibition of 125I-TNFα Binding (IC50) TNFR-p75 (human TNFR-p75 [4])
A145W: human TNFα mutein A145W,< 100 fold,< 1,250 fold,"10,000 ng/ml",< 100 fold,2.5 fold,0.1 mg/L
D143N: human TNFα mutein D143N,< 100 fold,< 0.3,"> 2,500 fold","> 100,000 ng/ml",330 fold,6.7 fold,0.3 mg/L
A145F: human TNFα mutein A145F,240 fold,0.04,33 fold,500 ng/mL,"6,000 fold",1.5 fold,0.03 mg/L
D143Y: human TNFα mutein D143Y,< 100 fold,< 0.08,"> 6,660 fold","> 100,000 ng/ml","1,330 fold",17.5 fold,0.35 mg/L
A145R: human TNFα mutein A145R,< 100 fold,< 0.03,"2,500 fold","100,000 ng/ml","3,330 fold",0.8 fold,0.035 mg/L
A33D: human TNFα mutein A33D,< 100 fold,> 1,–,–,< 100 fold,–,–
A145Y: human TNFα mutein A145Y,"1,670 fold",0.1,–,–,"11,110 fold",–,–
D143N-A145R: human TNFα mutein D143N-A145R (Example I),< 100 fold,< 0.8,"> 2,500 fold","> 100,000 ng/ml",125 fold,6.7 fold,0.3 mg/L
B1,"2,500 fold",> 25,–,–,< 100 fold,–,–
B2,< 100 fold,1,–,–,< 100 fold,–,–
B3,< 100 fold,< 1,–,–,< 100 fold,–,–
B4,500 fold,> 5,–,–,< 100 fold,–,–
